Experiments:
NCIH460 (lung) cells = assay: Anti-cancer screen (MTT), NCIH460; format: cell-based; details: Homo sapiens, NCI-H460, NCIH460, 48 hours, MTT; for GI50: read-out: Cell growth inhibition NCIH460 (Lung) GI50; for LC50: read-out: Cell growth inhibition NCIH460 (Lung) LC50; for IC (TGI): read-out: Cell growth inhibition NCIH460 (Lung) TGI
Description: (§1) Experimental drugs were screened for anti-cancer activity in three cell lines using five concentrations for each compound. The cell lines —HCT 116 (colon), NCIH460 (lung) and U251 (glioma) were maintained in DMEM containing 10% fetal bovine serum. 96-well microtiter plates are inoculated with cells in 100 μL of cell suspension (5×10^4 cells/mL) for 24 hours at 37° C., 5% CO2, 95% air and 100% relative humidity. A separate plate with these cell lines is also inoculated to determine cell viability before the addition of the compounds (T0).
(§2) Following 24-hours incubation, test compounds were added to the 96 well plates. Each plate contains one of the above cell lines and the following samples in triplicate: five different dilutions (0.01, 0.1, 1, 10 and 100 μM) of four test compounds, appropriate dilutions of a cytotoxic standard and growth medium (untreated) wells. Test compounds were dissolved in DMSO to prepare 20 mM stock solutions on the day of drug addition and serial dilutions were carried out in complete growth medium at 2× strength such that 100 μL added to wells gave final concentrations (0.01, 0.1, 1, 10 and 100 μM) in the well. SAHA was used as standard drug in these experiments.
(§3) For T0 measurement, 24 hours after seeding the cells, 20 μL of 3-(4,5-dimethyl-2-thiazolyl)-2,5-diphenyl-2H-tetrazolium (MTT) solution per well was added to the ‘T0’ plate and incubated for 3 hours at 37° C. in a CO2 incubator. The plate containing cells and test compounds was treated similarly after 48 hours of incubation. After 3 hours of MTT addition, well contents were aspirated carefully followed by addition of 150 μL DMSO per well. Plates were agitated to ensure dissolution of the formazan crystals in DMSO and absorbance was read at 570 nm (A570).
(§4) (Mosmann T. Rapid colorimetric assay for cellular growth and survival: application to proliferation and cytotoxicity assays. J Immunol Methods 1983; 65(1-2): 55-63; Anne Monks et al. Feasibility of high-flux anticancer drug screen using a diverse panel of cultured human tumor cell lines”. JNCI, Vol. 83, No. 11, 1991).

HCT 116 (colon) cells = assay: Anti-cancer screen (MTT), HCT 116; format: cell-based; details: Homo sapiens, HCT-116, HCT116, 48 hours, MTT; for GI50: read-out: Cell growth inhibition HCT116 (Colon) GI50; for CC50: read-out: Cell growth inhibition HCT116 (Colon) LC50; for IC (TGI): read-out: Cell growth inhibition HCT116 (Colon) TGI
Description: as §1, §2, §3, §4

U251 (glioma) cells = assay: Anti-cancer screen (MTT), U251; format: cell-based; details: Homo sapiens, U-251, U251, 48 hours, MTT; for GI50: read-out: Cell growth inhibition U251 (Glioma) GI50; for LC50 (concentration giving 50% net cell kill relative to the time-zero cell count): read-out: Cell growth inhibition U251 (Glioma) LC50; for IC (TGI): read-out: Cell growth inhibition U251 (Glioma) TGI
Description: as §1, §2, §3, §4

[1] = tested on: NCIH460, HCT116 and U251 cells; assay: Anti-cancer screen, mean GI50 over cell lines; format: cell-based; details: mean over cell lines; read-out: Cell growth inhibition Mean GI50
Description: as §1, §2, §3, §4

[2] = tested on: HDAC (Mouse Liver Extract); assay: HDAC inhibition assay using Boc-Lys(Ac)-AMC substrate; format: biochemical; details: mouse liver enzyme
Description: Inhibition of HDAC has been implicated to modulate transcription and to induce apoptosis or differentiation in cancer cells. The fluorometric assay provides a fast and fluorescence based method that eliminates radioactivity, extractions or chromatography, as used in traditional assays. The assay is based on two steps. First, the HDAC fluorometric substrate, which comprises an acetylated lysine side chain, is incubated with a sample containing HDAC activity (Mouse Liver Extract). Deacetylation of the substrate sensitizes the substrate, in the second step; treatment with the Trypsin stop solution produces a fluorophore that can be easily analyzed using fluorescence plate reader. Assay was done in 96-well black microplate and total volume of the assay was […]. […] The plate was pre-incubated at 37° C. for 5 minutes. […] The plate was incubated at 37° C. for 30 min. The reaction was stopped by adding 100 μL, of Trypsin stop solution and incubating at 37° C. for 15-30 min. Measuring the fluorescence at excitation wavelength of 360 nm and emission wavelength of 460 nm monitored the release of AMC. Buffer alone and substrate alone served as blank. […] (Dennis Wegener et al, Anal. Biochem, 321, 2003, 202-208).

| Compound | GI50 (NCIH460 (lung) cells) [µM] | LC50 (NCIH460 (lung) cells) [µM] | IC (TGI) (NCIH460 (lung) cells) [µM] | GI50 (HCT 116 (colon) cells) [µM] | CC50 (HCT 116 (colon) cells) [µM] | IC (TGI) (HCT 116 (colon) cells) [µM] | GI50 (U251 (glioma) cells) [µM] | LC50 (concentration giving 50% net cell kill relative to the time-zero cell count) (U251 (glioma) cells) [µM] | IC (TGI) (U251 (glioma) cells) [µM] | GI50 [1] [µM] | HDAC inhibition % (1 μM) [2] [%] | HDAC inhibition % (10 μM) [2] [%] | IC50 [2] [µM] |
| --- | --- | --- | --- | --- | --- | --- | --- | --- | --- | --- | --- | --- | --- |
| CSc1ccc(/C=C(/C(=O)NCCCCCC(=O)NO)c2ccsc2)cc1 [Compound 90, 6-(2-(Thiophen-3-yl)-3-(4-methylthiophenyl)acrylamido)-N-hydroxy hexanamide] | 0.1 | 30 | 5 | 3 | > 100 | 6 | 0.8 | 82 | 6.1 | 1.3 | 78.2 | 98.9 | 0.04 |
| Nc1ccccc1NC(=O)c1ccc(CNC(=O)/C(=C/c2ccc(F)c(F)c2)c2ccc(F)cc2)cc1 [Compound 1, N-(2-Aminophenyl)-4-((3-(3,4-difluorophenyl)-2-(4-fluorophenyl)acrylamido)methyl)benzamide] | 2.3 | 52 | 5.4 | 2.2 | 27 | 4.9 | 2.8 | 35 | 4.2 | 2.4 | 1.2 | 27.8 | – |
| COc1ccc(/C=C(/C(=O)NCc2ccc(C(=O)Nc3ccccc3N)cc2)c2cccs2)cc1OC [Compound 37, N-(2-Aminophenyl)-4-((3-(3,4-dimethoxyphenyl)-2-(thiophen-2-yl)acrylamido)methyl)benzamide] | 2 | 100 | 6 | 1.1 | 80 | 6 | 2.6 | 51 | 7 | 1.9 | 31.7 | 59.9 | 5 |
| COc1cc(/C=C(/C(=O)NCCCCCC(=O)NO)c2ccc(F)cc2)ccc1F [Compound 91, 6-(2-(4-Fluorophenyl)-3-(4-fluoro-3-methoxyphenyl)acrylamido)-N-hydroxy hexanamide] | 46 | > 100 | > 100 | 19 | > 100 | > 100 | 2 | 92 | 30 | 22.3 | 80.8 | 97.3 | – |
| O=C(NCc1ccc(C(=O)NO)cc1)/C(=C/c1c(F)cc(F)cc1F)c1ccc(F)cc1 [Compound 54, 4-((2-(4-Fluorophenyl)-3-(2,4,6-trifluorophenyl)acrylamido)methyl)-N-hydroxybenzamide] | 8 | 68 | 24 | 4.4 | 59 | 20 | 19 | 64 | 25 | 10.5 | 67.5 | 89.8 | – |
| O=C(NCc1ccc(C(=O)NO)cc1)/C(=C/c1ccc(F)cc1)c1ccccc1 [Compound 51, 4-((2-(Phenyl)-3-(4-fluorophenyl)acrylamido)methyl)-N-hydroxybenzamide] | 24 | 86 | 60 | 7.5 | 83 | 36 | 6 | 72 | 48 | 12.5 | 74.5 | 90.8 | – |
| Nc1ccccc1NC(=O)c1ccc(CNC(=O)/C(=C/c2ccccc2)c2ccccc2)cc1 [Compound 12, N-(2-Aminophenyl)-4-((3-phenyl-2-phenylacrylamido)methyl)benzamide] | 32 | 87 | 60 | 5.2 | 76.2 | 37 | 18 | 82 | 48.5 | 18.4 | 13.6 | 29.8 | – |
| CSc1ccc(/C=C(/C(=O)NCc2ccc(C(=O)NO)cc2)c2ccc(F)cc2)cc1 [Compound 52, 4-((2-(4-Fluorophenyl)-3-(4-methylthiophenyl)acrylamido)methyl)-N-hydroxybenzamide] | 12 | 82 | 53 | 5.6 | 69 | 9.6 | 10 | 75 | 54 | 9.2 | 83.5 | 95.7 | 0.06 |
| COC(=O)c1ccc(/C=C(/C(=O)NCc2ccc(C(=O)Nc3ccccc3N)cc2)c2ccc(F)c(F)c2)cc1 [Compound 38, N-(2-Aminophenyl)-4-((3-(4-carbmethoxyphenyl)-2-(3,4-difluorophenyl)acrylamido)methyl)benzamide] | 50 | > 100 | > 100 | 6.5 | > 100 | 80 | 15 | > 100 | 70 | 23.8 | 20.6 | 34.9 | – |
| CSc1ccc(/C=C(/C(=O)NCc2ccc(C(=O)NO)cc2)c2ccsc2)cc1 [Compound 59, 4-((2-(Thiophen-3-yl)-3-(4-methylthiophenyl)acrylamido)methyl)-N-hydroxybenzamide] | 2.3 | 30 | 7 | 3 | 60 | 15 | 1.5 | 65 | 5.5 | 2.3 | 76.6 | 96.3 | 0.03 |
| COc1ccc(/C=C(/C(=O)NCc2ccc(/C=C/C(=O)NO)cc2)c2ccccc2F)cc1OC [Compound 78, (1E)-N-(4-(3-(Hydroxyamino)-3-oxoprop-1-enyl)benzyl)-2-(2-fluorophenyl)-3-(3,4-dimethoxyphenyl)acrylamide] | 2 | > 100 | > 100 | 4 | > 100 | 30 | 1 | > 100 | 8 | 2.3 | 87.6 | 91.3 | – |

— US8476255B2, “Histone deacetylase inhibitors” (Orchid Chemicals & Pharmaceuticals Limited, priority 2007, dated 2013)
